Test results taken from BindingDB's records for doi:10.1021/acsmedchemlett.9b00264 (Xiamen University, 2019).
pIC50: −log10 of the molar value.

Legend:
[1] = Inhibition of JMJD6 in human […] cells assessed as decrease in cell proliferation measured after 72 hrs by CellTiter 96 AQueous one solution cell proliferation assay
[2] = Inhibition of JMJD6 in human HeLa cells assessed as decrease in cell proliferation measured after 72 hrs by CellTiter 96 AQueous one solution cell proliferation assay

## Cc1ccc2oc(=O)c(-c3nc4cnccc4[nH]3)cc2c1
[1]
  pIC50: 4.99
[2]
  pIC50: 5.61
